Data published in publication PMC6792352, “Limited Chemical Structural Diversity Found to Modulate Thyroid Hormone Receptor in the Tox21 Chemical Library” (Environmental Health Perspectives, 2019).
Structures can show the parent of a compound that is named as a salt.

Assay: in vitro
Details: rat, gh3-tre-luc cells

CCN[C@@H](C)Cc1cccc(C(F)(F)F)c1 [Dexfenfluramine hydrochloride]
CC50 at 24 h (AC50 (uM) modified / 1000, Tox21_110001=Tox21_112864, viability, 1 nM T3 present, 24 h): > 90 µM

CCCCCCCCCC#N [Decanenitrile]
CC50 at 24 h (AC50 (uM) modified / 1000): > 90 µM

CC[C@H]1[C@@H]2C[C@H]3[C@@H]4N(C)c5ccccc5[C@]45C[C@@H]([C@H]2[C@H]5O)N3[C@@H]1O [Ajmaline]
CC50 at 24 h (AC50 (uM) modified / 1000): > 20 µM

Clc1ccc(C(Cl)(Cl)Cl)cn1 [2-Chloro-5-trichloromethylpyridine]
CC50 at 24 h (AC50 (uM) modified / 1000): > 90 µM

O=C1CCC(=O)O1 [Succinic anhydride]
CC50 at 24 h (AC50 (uM) modified / 1000): > 90 µM

CCN(CC)CCOC(=O)c1ccc(N)cc1Cl [Chloroprocaine hydrochloride]
CC50 at 24 h (AC50 (uM) modified / 1000): > 50 µM

Cc1cccc2nccnc12 [5-Methylquinoxaline]
CC50 at 24 h (AC50 (uM) modified / 1000): > 90 µM

C#CCC(Cc1cnc2nc(N)nc(N)c2n1)c1ccc(C(=O)N[C@@H](CCC(=O)O)C(=O)O)cc1 (stereo partly shown) [Pralatrexate]
CC50 at 24 h (AC50 (uM) modified / 1000): > 50 µM

COc1ccc(S(=O)(=O)N2c3ccc(Cl)cc3[C@](O)(c3ccccc3Cl)[C@@H]2C(=O)N2CCC[C@H]2C(N)=O)cc1OC [Relcovaptan]
CC50 at 24 h (AC50 (uM) modified / 1000): > 50 µM

CCC(=O)c1ccc(Cl)cc1 [Ethyl 4-chlorophenyl ketone]
CC50 at 24 h (AC50 (uM) modified / 1000, Tox21_110001=Tox21_303381, viability, 1 nM T3 present, 24 h): > 90 µM

CC(=O)Nc1ccc(S(=O)(=O)Cl)cc1 [4-(Acetylamino)benzenesulfonyl chloride]
CC50 at 24 h (AC50 (uM) modified / 1000): > 90 µM

CCOC(=O)C1OC1(C)c1ccccc1 (stereo not shown) [Ethyl methylphenylglycidate]
CC50 at 24 h (AC50 (uM) modified / 1000, Tox21_110001=Tox21_201315, viability, 1 nM T3 present, 24 h): > 90 µM

CC1=C(O)C(=O)OC1C (stereo not shown) [4,5-Dimethyl-3-hydroxy-2,5-dihydrofuran-2-one]
CC50 at 24 h (AC50 (uM) modified / 1000): > 90 µM

C=CC1=C(C(=O)O)N2C(=O)[C@@H](NC(=O)/C(=N\OCC(=O)O)c3csc(N)n3)[C@H]2SC1 [Cefixime]
CC50 at 24 h (AC50 (uM) modified / 1000): > 20 µM

BrCCc1ccccc1 [Phenethyl bromide]
CC50 at 24 h (AC50 (uM) modified / 1000, Tox21_110001=Tox21_200102, viability, 1 nM T3 present, 24 h): > 90 µM

CC(COc1ccccc1)NC(C)C(O)c1ccc(O)cc1 (stereo not shown) [Isoxsuprine hydrochloride]
CC50 at 24 h (AC50 (uM) modified / 1000): > 20 µM

O=Cc1ccc(Cl)cc1 [4-Chlorobenzaldehyde]
CC50 at 24 h (AC50 (uM) modified / 1000): > 90 µM

C=CCO [Allyl alcohol]
CC50 at 24 h (AC50 (uM) modified / 1000, Tox21_110001=Tox21_200200, viability, 1 nM T3 present, 24 h): > 100 µM
CC50 at 24 h (AC50 (uM) modified / 1000, Tox21_110001=Tox21_303507, viability, 1 nM T3 present, 24 h): > 90 µM

CCC(C)COC(C)=O (stereo not shown) [2-Methylbutyl acetate]
CC50 at 24 h (AC50 (uM) modified / 1000): > 90 µM

CCOCCO [2-Ethoxyethanol]
CC50 at 24 h (AC50 (uM) modified / 1000): > 90 µM

CC(=O)c1ccc(S(=O)(=O)NC(=O)NC2CCCCC2)cc1 [Acetohexamide]
CC50 at 24 h (AC50 (uM) modified / 1000): > 90 µM

O=c1[nH]c(=O)c2[nH]c(=O)[nH]c2[nH]1 [Sodium urate]
CC50 at 24 h (AC50 (uM) modified / 1000): > 50 µM

OCCO [Ethylene glycol]
CC50 at 24 h (AC50 (uM) modified / 1000): > 100 µM

C[C@]12CCC(=O)C(O)=C1CC[C@@H]1[C@@H]2CC[C@]2(C)C(=O)CC[C@@H]12 [4-Hydroxyandrostenedione]
CC50 at 24 h (AC50 (uM) modified / 1000, Tox21_110001=Tox21_112111, viability, 1 nM T3 present, 24 h): > 50 µM
CC50 at 24 h (AC50 (uM) modified / 1000, Tox21_110001=Tox21_302286, viability, 1 nM T3 present, 24 h): > 90 µM

CC(C)OCC1CO1 (stereo not shown) [Isopropyl glycidyl ether]
CC50 at 24 h (AC50 (uM) modified / 1000): > 90 µM

CCc1cc2c(s1)-n1c(C)nnc1CN=C2c1ccccc1Cl [Etizolam]
CC50 at 24 h (AC50 (uM) modified / 1000, Tox21_110001=Tox21_112931, viability, 1 nM T3 present, 24 h): > 50 µM

CCOC(=O)CCC(=O)O[C@H]1[C@H](O[C@@H]2[C@@H](C)[C@H](O[C@H]3C[C@@](C)(OC)[C@@H](O)[C@H](C)O3)[C@@H](C)C(=O)O[C@H](CC)[C@@](C)(O)[C@H](O)[C@@H](C)C(=O)[C@H](C)C[C@@]2(C)O)O[C@H](C)C[C@@H]1N(C)C [Erythromycin ethylsuccinate]
CC50 at 24 h (AC50 (uM) modified / 1000): > 50 µM

CC1(C)S[C@@H]2[C@H](NC(=O)[C@H](N)c3ccc(O)cc3)C(=O)N2[C@H]1C(=O)O [Amoxicillin]
CC50 at 24 h (AC50 (uM) modified / 1000): > 50 µM

Cc1ccc(S(N)(=O)=O)cc1 [4-Toluenesulfonamide]
CC50 at 24 h (AC50 (uM) modified / 1000): > 90 µM

CC[C@]12CCCN3CCc4c(n(c5ccccc45)[C@@](O)(C(=O)OC)C1)[C@@H]32 [Vincamine]
CC50 at 24 h (AC50 (uM) modified / 1000): 65.8 µM

CC(C)CCCCCCOC(=O)C1CCCCC1C(=O)OCCCCCCC(C)C (stereo not shown) [Diisononyl cyclohexane-1,2-dicarboxylate]
CC50 at 24 h (AC50 (uM) modified / 1000): > 90 µM

CC1(CN2CCC(n3c(=O)[nH]c4ccccc43)CC2)OCc2ccccc2-n2cccc21 (stereo not shown) [Zaldaride]
CC50 at 24 h (AC50 (uM) modified / 1000): 32.7 µM

CCCCCCCCCCCCN(C)C [N,N-Dimethyldodecan-1-amine]
CC50 at 24 h (AC50 (uM) modified / 1000): > 90 µM

c1ccc(-c2nc[nH]c2-c2ccccc2)cc1 [4,5-Diphenylimidazole]
CC50 at 24 h (AC50 (uM) modified / 1000): > 50 µM

Brc1ccc(Oc2ccc(Br)cc2)cc1 [4,4'-Dibromodiphenyl ether]
CC50 at 24 h (AC50 (uM) modified / 1000): > 90 µM

c1ccccc1 [Benzene]
CC50 at 24 h (AC50 (uM) modified / 1000): > 90 µM

O=C(/C=C/C=C/c1ccc2c(c1)OCO2)N1CCCCC1 [Piperine]
CC50 at 24 h (AC50 (uM) modified / 1000): > 90 µM

Cc1ccc(S(=O)(=O)NC(=O)NN2CCCCCC2)cc1 [Tolazamide]
CC50 at 24 h (AC50 (uM) modified / 1000): > 90 µM

O=C1C(CC[S+]([O-])c2ccccc2)C(=O)N(c2ccccc2)N1c1ccccc1 (stereo not shown) [Sulfinpyrazone]
CC50 at 24 h (AC50 (uM) modified / 1000): > 20 µM

Nc1ccc(C(=O)NCC(=O)O)cc1 [Aminohippuric acid]
CC50 at 24 h (AC50 (uM) modified / 1000): > 20 µM

C[C@H]1O[C@@H](O[C@H]2[C@@H](O)C[C@H](O[C@H]3[C@@H](O)C[C@H](O[C@H]4CC[C@@]5(C)[C@H](CC[C@@H]6[C@@H]5CC[C@]5(C)[C@@H](C7=CC(=O)OC7)CC[C@]65O)C4)O[C@@H]3C)O[C@@H]2C)C[C@H](O)[C@@H]1O [Digitoxin]
CC50 at 24 h (AC50 (uM) modified / 1000): > 60 µM

N#CC1(N2CCCCC2)CCCCC1 [1-Piperidinocyclohexanecarbonitrile]
CC50 at 24 h (AC50 (uM) modified / 1000, Tox21_110001=Tox21_111849, viability, 1 nM T3 present, 24 h): > 50 µM

Cc1c(O)cc2c(c1C)O[C@](C)(CCC[C@H](C)CCC[C@H](C)CCCC(C)C)CC2 [(+)-gamma-Tocopherol]
CC50 at 24 h (AC50 (uM) modified / 1000): > 50 µM

CCN1CCCC1=O [1-Ethyl-2-pyrrolidinone]
CC50 at 24 h (AC50 (uM) modified / 1000): > 90 µM

C=CCCCCCCCCC(=O)O [10-Undecenoic acid]
CC50 at 24 h (AC50 (uM) modified / 1000): > 90 µM

C[N@+]12CCCC[C@@H]1CCC(=C(c1cccs1)c1cccs1)C2 (racemic) [Tiquizium bromide]
CC50 at 24 h (AC50 (uM) modified / 1000): > 50 µM

CCOP(=S)(NC(C)C)Oc1ccccc1C(=O)OC(C)C (stereo not shown) [Isofenphos]
CC50 at 24 h (AC50 (uM) modified / 1000, Tox21_110001=Tox21_302219, viability, 1 nM T3 present, 24 h): 78.7 µM

NS(=O)(=O)c1cc2c(cc1Cl)NC(CC1CCCC1)NS2(=O)=O (stereo not shown) [Cyclopenthiazide]
CC50 at 24 h (AC50 (uM) modified / 1000): > 20 µM

CC(=O)CC(=O)Nc1ccccc1C [N-(2-Methylphenyl)-3-oxobutanamide]
CC50 at 24 h (AC50 (uM) modified / 1000): > 90 µM

CC(=O)Nc1ccc(C)cc1 [N-Acetyl-p-toluidine]
CC50 at 24 h (AC50 (uM) modified / 1000): > 90 µM

C[N+](C)(C)CC(O)CC(=O)[O-] (stereo not shown) [Carnitine hydrochloride]
CC50 at 24 h (AC50 (uM) modified / 1000): > 50 µM

BrCC1CO1 (stereo not shown) [Epibromohydrin]
CC50 at 24 h (AC50 (uM) modified / 1000, Tox21_110001=Tox21_202607, viability, 1 nM T3 present, 24 h): > 90 µM

Cc1ccc(C(=O)Nc2ccc(S(=O)(=O)O)c3cc(S(=O)(=O)O)cc(S(=O)(=O)O)c23)cc1NC(=O)c1cccc(NC(=O)Nc2cccc(C(=O)Nc3cc(C(=O)Nc4ccc(S(=O)(=O)O)c5cc(S(=O)(=O)O)cc(S(=O)(=O)O)c45)ccc3C)c2)c1 [Suramin]
CC50 at 24 h (AC50 (uM) modified / 1000): > 50 µM

CCCCCCC#CC(=O)OC [Methyl 2-nonynoate]
CC50 at 24 h (AC50 (uM) modified / 1000): > 90 µM

Cc1cc(O)c2c(c1)O[C@@]1(C)CC[C@H]3C(C)(C)CCC[C@]34CO[C@@H]2[C@H]41 [Siccanin]
CC50 at 24 h (AC50 (uM) modified / 1000): 15.9 µM

CC(C)(O)c1ccc(CNC(=O)c2cccnc2Oc2ccc(F)cc2)cc1 [CP-457677]
CC50 at 24 h (AC50 (uM) modified / 1000): > 90 µM

Oc1c(Br)cc(Br)cc1Br [2,4,6-Tribromophenol]
CC50 at 24 h (AC50 (uM) modified / 1000, Tox21_110001=Tox21_111098, viability, 1 nM T3 present, 24 h): > 50 µM
CC50 at 24 h (AC50 (uM) modified / 1000, Tox21_110001=Tox21_201273, viability, 1 nM T3 present, 24 h): > 90 µM

Cn1nnc2c(C(N)=O)ncn2c1=O [Temozolomide]
CC50 at 24 h (AC50 (uM) modified / 1000): > 50 µM

CC(=O)Nc1ccn(C2COC(COC(=O)c3ccccc3)O2)c(=O)n1 (stereo not shown) [{4-[4-(Acetylamino)-2-oxopyrimidin-1(2H)-yl]-1,3-dioxolan-2-yl}methyl benzoate]
CC50 at 24 h (AC50 (uM) modified / 1000): > 50 µM

CC(=O)OC(C)OC(C)=O [1,1-Ethanediol diacetate]
CC50 at 24 h (AC50 (uM) modified / 1000): > 90 µM

Oc1cc(O)c(Cl)cc1Cl [4,6-Dichloro-1,3-benzenediol]
CC50 at 24 h (AC50 (uM) modified / 1000): > 90 µM

BrCC(Br)C1CCC(Br)C(Br)C1 (stereo not shown) [1,2-Dibromo-4-(1,2-dibromoethyl)cyclohexane]
CC50 at 24 h (AC50 (uM) modified / 1000): 55.8 µM

CC(CC(c1ccccc1)c1ccccc1)NC(C)(C)C (stereo not shown) [Terodiline hydrochloride]
CC50 at 24 h (AC50 (uM) modified / 1000): 11 µM

CC(C)=CC(=O)O [3,3-Dimethylacrylic acid]
CC50 at 24 h (AC50 (uM) modified / 1000): > 90 µM

CC1(C)CC(OC(=O)CCCCCCCCC(=O)OC2CC(C)(C)NC(C)(C)C2)CC(C)(C)N1 [Bis(2,2,6,6-tetramethyl-4-piperidyl) sebacate]
CC50 at 24 h (AC50 (uM) modified / 1000): 1.55 µM

Nc1ccc(C(=O)O)cc1 [4-Aminobenzoic acid]
CC50 at 24 h (AC50 (uM) modified / 1000): > 90 µM

C=CCOC(=O)CCCCCC [Prop-2-en-1-yl heptanoate]
CC50 at 24 h (AC50 (uM) modified / 1000): > 90 µM

CC(=O)c1ccc(C(C)=O)cc1 [1,1-(1,4-Phenylene)bis-ethanone]
CC50 at 24 h (AC50 (uM) modified / 1000): > 90 µM

CC1=NC(C)OC1C (stereo not shown) [2,4,5-Trimethyl-3-oxazoline]
CC50 at 24 h (AC50 (uM) modified / 1000): > 90 µM

N#CCCC#N [Succinonitrile]
CC50 at 24 h (AC50 (uM) modified / 1000, Tox21_110001=Tox21_200635, viability, 1 nM T3 present, 24 h): > 90 µM
